Tests used:
[1] = system: transgenic C. parvum that express NanoLuciferase; assay: NOD SCID Gamma chronic mouse efficacy model; assay type: in vivo; conditions: 50 mg/kg BID oral 7 days from day 36 PI
Experimental: We next developed a mouse efficacy model that mimics chronic infection. In this model, NOD SCID Gamma mice were allowed to become highly infected (>10^9 RLU) and maintain this for a minimum of one week before compound treatment was administered (Fig. 4C). To achieve efficacy against this chronic infection, compounds must kill more parasites, offering a more rigorous method for assessing suitability for progression.
Male NOD SCID Gamma mice (NOD.Cg-Prkdc^scid Il2rgtm1Wjl/SzJ; purchased from Charles Rivers) aged 10 weeks old were used (n = 4 mice per experimental group). Mice were infected by oral gavage (5,000 oocysts of Δtk::mNeon-Neo^R). Oocyst shedding in feces was determined by NanoLuciferase assay as described above. Once infection became chronic (at least 1 week of fecal RLUs/g at >10^9), compounds were administered. DDD489 was prepared in HPMC without DMSO and administered by oral gavage at 50 mg/kg starting day 36 post infection. Early lead compound DDD706 served as the positive control (administered at 20 mg/kg QD). Fecal samples were pooled from all mice in the cage on days indicated.

Dog pharmacokinetics = assay type: in vivo
Experimental: Dog pharmacokinetics (WuXi App Tec)
As for mouse except using male beagle dogs (IV dose volume: 3 mg/mL; dose vehicle: 10% DMSO, 40% PEG400, 50% (40%HP-β-CD in water); PO dose volume: 2 mg/mL; dose vehicle: 1% CMC-Na(800-1200)+0.2% Tween 80 in water). Pharmacokinetic parameters were derived from the blood concentration-time curve using WinNonLin Professional Software v 6.3 (Pharsight Corporation). […]

[2] = male, beagle, whole blood, dog PO 10 mg/kg

With `Nc1nc2c(c(C(F)(F)F)n1)C(=O)N(CC1CCCC(C(F)(F)F)C1)C2` (stereo not shown) [DDD489] the “parasite shedding by end of treatment period” value [1] was “reduce parasite shedding below the LOQ”, the recrudescence [1] was “failed to prevent recrudescence” and the CLB (Dog pharmacokinetics; dog IV 3 mg/kg, clearance in blood) was 52 mL/min/kg. For the same molecule, the half-life (Dog pharmacokinetics; male, beagle, whole blood, 3 mg/kg, dog, IV, read-out: T½ (converted)) was 1.7 h, the Vd (Dog pharmacokinetics; male, beagle, whole blood, 3 mg/kg, dog, IV, read-out: Vdss) was 4.2 L/kg and the AUC (Dog pharmacokinetics; male, beagle, whole blood, dog IV 3 mg/kg) was 1000 ng·h/mL. The AUC (Dog pharmacokinetics; [2]) was 667 ng·h/mL, the Cmax (Dog pharmacokinetics; [2]) was 200 ng/mL and the Tmax (Dog pharmacokinetics; [2]) was 1.2 h. It also gave a bioavailability (Dog pharmacokinetics; male, beagle, whole blood, dog PO 10 mg/kg, read-out: F (oral bioavailability)) of 18%.

From PMC7617456, “Cryptosporidium lysyl-tRNA synthetase inhibitors define the interplay between solubility and permeability required to achieve efficacy” (Science translational medicine, 2024)
